Common to all, as to assay: Antibacterial activity, MIC
Common to all, as to assay type: cell-based

Assay [1] has as its system Staphylococcus epidermidis ATCC 12228. The conditions noted are these: ATCC12228, ATCC 12228, agar two-fold dilution, 37° C., 20 hours, read-out: MIC. The procedure: (§1) Also, the in vitro antibacterial activity was determined by the by a two-fold dilution method as described below:
(§2) That is, the two-fold serial dilutions of the compound were made dispersed in Muller-Hinton agar medium. 2 μl of standard test strain which had the 10^7 CFU per ml was inoculated on the medium, and was incubated at 37° C. for 20 hours.

Assay [2] relates to Shigella flexneri ATCC 11836. The following applies: ATCC11836, agar two-fold dilution, 37° C., 20 hours. The procedure:
as §1, §2

In assay [3] the test system is Acinetobacter calcoaceticus ATCC 15473. The conditions noted are these: ATCC15473, ATCC 15473, agar two-fold dilution, 37° C., 20 hours, read-out: MIC. The method, then:
as §1, §2

For assay [4], the system named is Staphylococcus aureus ATCC 6538p. The conditions noted are these: ATCC6538P, ATCC 6538p, agar two-fold dilution, 37° C., 20 hours, read-out: MIC. The method, then: as §1, §2
Assay [5] concerns Micrococcus luteus ATCC 9341. The following applies: ATCC9341, ATCC 9341, agar two-fold dilution, 37° C., 20 hours, read-out: MIC. The method, then:
as §1, §2

Assay [6] deals with Proteus vulgaris ATCC 6059. The following applies: ATCC6059, ATCC 6059, agar two-fold dilution, 37° C., 20 hours, read-out: MIC. The method, then: as §1, §2
In assay [7] the test system is Pseudomonas aeruginosa ATCC 25619. The following applies: ATCC25619, ATCC 25619, agar two-fold dilution, 37° C., 20 hours, read-out: MIC. The procedure:
as §1, §2

Assay [8] relates to Pseudomonas aeruginosa ATCC 10145. The following applies: ATCC10145, ATCC 10145, agar two-fold dilution, 37° C., 20 hours, read-out: MIC. The method, then:
as §1, §2

The subject of assay [9] is Staphylococcus aureus ATCC 10537. The following applies: ATCC10537, ATCC 10537, agar two-fold dilution, 37° C., 20 hours, read-out: MIC. The method, then: as §1, §2
In assay [10] the test system is Klebsiella pneumoniae ATCC 10031. The following applies: ATCC10031, ATCC 10031, agar two-fold dilution, 37° C., 20 hours, read-out: MIC. The method, then:
as §1, §2

The test system of assay [11] is Escherichia coli ATCC 25922. The conditions noted are these: ATCC25922, agar two-fold dilution, 37° C., 20 hours. The procedure:
as §1, §2

For assay [12], the system named is Proteus mirabilis ATCC 25933. The conditions noted are these: ATCC25933, ATCC 25933, agar two-fold dilution, 37° C., 20 hours, read-out: MIC. The method, then:
as §1, §2

For assay [13], the system named is Bacillus megaterium ATCC 9885. The following applies: Priestia megaterium, ATCC9885; ATCC 9885; agar two-fold dilution, 37° C., 20 hours; read-out: MIC. The method, then: as §1, §2
Assay [14] relates to Streptococcus faecalis ATCC 29212. The following applies: Enterococcus faecalis, ATCC29212; ATCC 29212; agar two-fold dilution, 37° C., 20 hours; read-out: MIC. The procedure: as §1, §2
Assay [15] has as its system Providencia rettgeri ATCC 9250. The following applies: ATCC9250, agar two-fold dilution, 37° C., 20 hours. The method, then: as §1, §2
Assay [16] deals with Citrobacter freundii ATCC 8090. The conditions noted are these: ATCC8090, ATCC 8090, agar two-fold dilution, 37° C., 20 hours, read-out: MIC. The method, then:
as §1, §2

The subject of assay [17] is Serratia marcescens ATCC 27117. The conditions noted are these: ATCC27117, ATCC 27117, agar two-fold dilution, 37° C., 20 hours, read-out: MIC. The method, then:
as §1, §2

In assay [18] the test system is Enterobacter aerogenes ATCC 29751. The following applies: Klebsiella aerogenes, ATCC29751; ATCC 29751; agar two-fold dilution, 37° C., 20 hours; read-out: MIC. The method, then: as §1, §2
The subject of assay [19] is Salmonella typhimurium ATCC 14028. The conditions noted are these: Salmonella enterica; ATCC 14028; agar two-fold dilution, 37° C., 20 hours; read-out: MIC. The method, then: as §1, §2
For assay [20], the system named is Pseudomonas aeruginosa ATCC 27853. The following applies: ATCC27853, ATCC 27853, agar two-fold dilution, 37° C., 20 hours, read-out: MIC. The method, then: as §1, §2
Assay [21] deals with Enterobacter cloacae ATCC 27508. The conditions noted are these: ATCC27508, ATCC 27508, agar two-fold dilution, 37° C., 20 hours, read-out: MIC. The procedure:
as §1, §2

In assay [22] the test system is Morganella morganii ATCC 8076h. The following applies: ATCC8076H, agar two-fold dilution, 37° C., 20 hours. The procedure: as §1, §2
In assay [23] the test system is Shigella sonnei ATCC 11060. The following applies: ATCC11060, ATCC 11060, agar two-fold dilution, 37° C., 20 hours, read-out: MIC. The procedure:
as §1, §2

Assay [24] concerns Bacillus cereus ATCC 11778. The conditions noted are these: ATCC11778, ATCC 11778, agar two-fold dilution, 37° C., 20 hours, read-out: MIC. The method, then: as §1, §2
The test system of assay [25] is Escherichia coli ATCC 10536. The conditions noted are these: ATCC10536, agar two-fold dilution, 37° C., 20 hours. The method, then:
as §1, §2

Molecules are shown by their SMILES. ≈ marks a conversion by molar mass, not a printed value.

In patent US5202315A, “Cephalosporin compounds” (Lucky, Ltd., priority 1989, dated 1993) one finds MIC data, which are given here for 2 compounds.

`CCC[n+]1c(N)cc(N)nc1SCC1=C(C(=O)[O-])N2C(=O)C(NC(=O)/C(=N\OC(C)(C)C(=O)O)c3nsc(N)n3)C2SC1` (stereo not drawn) [Compound I-28]: the MIC (as a rule, the smallest concentration in the dilution series that meets the test's criterion for growth inhibition) in assay [1] is 4 µg/mL (≈ 6.13 µM); in assay [2] it was 0.063 µg/mL (≈ 0.0965 µM); in assay [3] it was 8 µg/mL (≈ 12.3 µM); in assay [4], 8 µg/mL (≈ 12.3 µM); in [5], 0.5 µg/mL (≈ 0.766 µM); in [6] it was 0.25 µg/mL (≈ 0.383 µM). Also, the MIC amounted to 2 µg/mL (≈ 3.06 µM) in assay [7]; 4 µg/mL (≈ 6.13 µM) in assay [8]; 4 µg/mL (≈ 6.13 µM) in [9]; 0.13 µg/mL (≈ 0.199 µM) in assay [10]; 0.13 µg/mL (≈ 0.199 µM) in assay [11]; 0.13 µg/mL (≈ 0.199 µM) in [12]. Moreover, the minimal inhibitory concentration (MIC) in assay [13] is 0.25 µg/mL (≈ 0.383 µM); in assay [14], > 128 µg/mL; in assay [15], ≤ 0.008 µg/mL; in assay [16], 0.13 µg/mL (≈ 0.199 µM); in assay [17], 0.25 µg/mL (≈ 0.383 µM); in assay [18] it was 4 µg/mL (≈ 6.13 µM). Further, the minimum inhibitory concentration (MIC) in assay [19] was 0.5 µg/mL (≈ 0.766 µM); in [20], 2 µg/mL (≈ 3.06 µM); in assay [21] it was 0.031 µg/mL (≈ 0.0475 µM); in assay [22], ≤ 0.008 µg/mL; in assay [23], 0.13 µg/mL (≈ 0.199 µM); in assay [24] it was 128 µg/mL (≈ 196 µM). Also, the minimum inhibitory concentration (MIC) in assay [25] worked out at 0.13 µg/mL (≈ 0.199 µM).
As for `C=CC[n+]1c(N)cc(N)nc1SCC1=C(C(=O)[O-])N2C(=O)C(NC(=O)/C(=N\OC(C)C(=O)O)c3csc(N)n3)C2SC1` (stereo not drawn) [Compound I-6], the MIC in assay [1] was 2 µg/mL (≈ 3.15 µM); in assay [2], 0.031 µg/mL (≈ 0.0488 µM); in assay [3], 4 µg/mL (≈ 6.29 µM); in assay [4], 4 µg/mL (≈ 6.29 µM); in assay [5] it was 0.25 µg/mL (≈ 0.393 µM); in assay [6], 0.031 µg/mL (≈ 0.0488 µM). The MIC was 2 µg/mL (≈ 3.15 µM) in [7]; 4 µg/mL (≈ 6.29 µM) in assay [8]; 2 µg/mL (≈ 3.15 µM) in [9]; 0.031 µg/mL (≈ 0.0488 µM) in assay [12]; 1 µg/mL (≈ 1.57 µM) in assay [13]; > 128 µg/mL in [14]. For the same compound, the MIC in [15] is ≤ 0.008 µg/mL; in assay [16], 0.063 µg/mL (≈ 0.0991 µM); in [17], 0.13 µg/mL (≈ 0.204 µM); in assay [18], 1 µg/mL (≈ 1.57 µM); in [19], 0.25 µg/mL (≈ 0.393 µM); in assay [20], 2 µg/mL (≈ 3.15 µM). Moreover, the MIC in [21] is 0.016 µg/mL (≈ 0.0252 µM); in assay [22], ≤ 0.008 µg/mL; in [23], 0.063 µg/mL (≈ 0.0991 µM); in [24] it was 128 µg/mL (≈ 201 µM); in assay [25], 0.063 µg/mL (≈ 0.0991 µM).
